Data reported in BigSolDB 2.1.

c1ccc(-c2nnn[nH]2)cc1
solubility (mole fraction)
Details | in cyclohexane | in ethanol | in ethyl acetate | in isopropanol | in methanol | in n-propanol | in toluene
283.15 K | – | 0.0148 | 0.00628 | 0.0141 | 0.0156 | 0.0136 | 2.5e-05
285.65 K | – | 0.0156 | 0.00648 | 0.0147 | 0.0164 | 0.0142 | 2.85e-05
288.15 K | – | 0.0164 | 0.00665 | 0.0155 | 0.0172 | 0.0148 | 3.35e-05
290.65 K | – | 0.0172 | 0.00691 | 0.0163 | 0.018 | 0.0154 | 3.84e-05
293.15 K | – | 0.0181 | 0.00717 | 0.0171 | 0.0189 | 0.016 | 4.45e-05
295.65 K | – | 0.019 | 0.00746 | 0.0179 | 0.0199 | 0.0167 | 5.09e-05
298.15 K | – | 0.02 | 0.00773 | 0.0189 | 0.0209 | 0.0174 | 5.84e-05
300.65 K | – | 0.0209 | 0.00804 | 0.0198 | 0.0219 | 0.0181 | 6.64e-05
303.15 K | – | 0.022 | 0.00838 | 0.0208 | 0.023 | 0.0188 | 7.62e-05
305.65 K | 7.5e-06 | 0.023 | 0.00878 | 0.0217 | 0.024 | 0.0196 | 8.68e-05
308.15 K | 8.16e-06 | 0.0241 | 0.00918 | 0.0227 | 0.0252 | 0.0204 | 9.91e-05
310.65 K | 8.97e-06 | 0.0253 | 0.00961 | 0.0237 | 0.0264 | 0.0213 | 0.000113
313.15 K | 9.6e-06 | 0.0264 | 0.0101 | 0.0248 | 0.0276 | 0.0221 | 0.000129
315.65 K | 1.04e-05 | 0.0277 | 0.0106 | 0.0257 | 0.0289 | 0.023 | 0.000146
318.15 K | 1.11e-05 | 0.0289 | 0.0111 | 0.0268 | 0.0302 | 0.0239 | 0.000165
